# Key:
# [1] = Non-sink dissolution (microcentrifuge assay, pH 2 then FaSSIF pH 6.5); assay type: physicochemical; conditions: after FaSSIF pH 6.5 transfer
# Experimental: Non-sink dissolution is performed by adding the test composition to a solution of 0.01 N HCl pH 2 (e.g., in a centrifuge tube) and analyzing for 7-[[(1S)-1-[4-[(1S)-2-cyclopropyl-1-(4-prop-2-enoylpiperazin-1-yl)ethyl]phenyl]ethyl]amino]-1-ethyl-4H-pyrimido[4,5-d][1,3]oxazin-2-one solution concentration, by HPLC, at approximately time zero, 20 and 40 minutes. After approximately 40 minutes, a solution of fasted state simulated intestinal fluid (FaSSIF) pH 6.5, with 0.224 wt % bile salts, is added to the pH 2 solution. The 7-[[(1S)-1-[4-[(1S)-2-cyclopropyl-1-(4-prop-2-enoylpiperazin-1-yl)ethyl]phenyl]ethyl]amino]-1-ethyl-4H-pyrimido[4,5-d][1,3]oxazin-2-one concentration is monitored, by HPLC, at approximately 50, 70, 90 and 120 minutes after time zero. At each timepoint the samples are centrifuged at 18,500 g-force for 3 minutes to remove undissolved solids from the sample. For analysis, a supernatant sample (100 μL) is diluted 5× using 1:1 acetonitrile/H2O and analyzed. The non-sink dissolution test is completed at room temperature.
# [2] = Preclinical solubility studies of Compound A; assay type: physicochemical; conditions: certain preclinical studies
SMILES,solution concentration at the 70 minute timepoint at elevated pH as compared to TC1 [1],"solubility, acidic versus neutral environment [2]"
"C=CC(=O)N1CCN([C@@H](CC2CC2)c2ccc([C@H](C)Nc3ncc4c(n3)N(CC)C(=O)OC4)cc2)CC1 [TC2, 7-[[(1S)-1-[4-[(1S)-2-cyclopropyl-1-(4-prop-2-enoylpiperazin-1-yl)ethyl]phenyl]ethyl]amino]-1-ethyl-4H-pyrimido[4,5-d][1,3]oxazin-2-one, 2,5-dihydroxybenzoic acid (1:2)]",increased solution concentration,
"C=CC(=O)N1CCN([C@@H](CC2CC2)c2ccc([C@H](C)Nc3ncc4c(n3)N(CC)C(=O)OC4)cc2)CC1 [TC1, 7-[[(1S)-1-[4-[(1S)-2-cyclopropyl-1-(4-prop-2-enoylpiperazin-1-yl)ethyl]phenyl]ethyl]amino]-1-ethyl-4H-pyrimido[4,5-d][1,3]oxazin-2-one]",,more soluble in an acidic environment than a neutral one

# From patent US11746115B2, “Solid forms of 7-[[(1S)-1-[4-[(1S)-2-cyclopropyl-1-(4-prop-2-enoylpiperazin-1-yl)ethyl]phenyl]ethyl]amino]-1-ethyl-4H-pyrimido[4,5-d][1,3]oxazin-2-one” (Eli Lilly and Company, priority 2021, dated 2023)
